In patent publication US6541482B2, “Carbocyclic nucleoside agents useful as selective inhibitors of proinflammatory cytokines” (priority 1993, dated 2003):

What was measured:
TNF-α = test: Inhibition of TNF-α production by LPS-stimulated human monocyte-derived macrophages; format: cell-based; conditions: Macrophage; monocyte-derived macrophages from human peripheral blood, stimulated with LPS, 18 hours of culture; dose response 500 μM-0.1 μM; read-out: IC50 for inhibiting TNF-α levels
Method: Monocyte-derived macrophages stimulated with bacterial lipopolysaccharide (LPS) produce high levels of TNF-α (14.87±1.02 ηg/mL) during 18 hours of culture.

lethal effects of LPS = test: D-galactosamine animal model of septic shock (protection against lethal effects of LPS); format: in vivo; conditions: treated about 1 hour before i.p. challenge of D-galactosamine and LPS, 100 mg/kg i.p. for the azido compound; for protection: mice, vehicle HBSS 0% protection; for mice killed: vehicle HBSS 6 out of 6 killed by 18 hours
Method: Mice treated with the vehicle Hanks Balanced Salt Solution (HBSS) approximately 1 hour before intraperitoneal (i.p.) challenge of D-galactosamine and LPS, succumb to disease by 18 hours after challenge (e.g. 6 out of 6 mice killed; 0% protection). […] Positive-control PTX afforded […] protection in this model (3 out of 6 mice killed; 50% protection).

| SMILES | IC50 (TNF-α) | protection (lethal effects of LPS) | mice killed (lethal effects of LPS) |
| --- | --- | --- | --- |
| CC(=O)CCCCn1c(=O)c2c(ncn2C)n(C)c1=O [Pentoxifylline] | 26.3 ± 16 µM | 50% | 3 out of 6 |
| [N-]=[N+]=NC1CCC(n2cnc3c(N)ncnc32)C1 (stereo not drawn) [1R,3R-trans-1-(9-adenyl)-3-azidocyclopentane] | 5.48 ± 1.3 µM | 66% | 2 out of 6 |
